Reference: patent US20240310368A1, “DETECTION KIT FOR CATECHOLAMINES AND METABOLITES THEREOF IN PLASMA/URINE AND DETECTION METHOD THEREOF” (Calibra Scientific, Inc., priority 2023, published 2024)
“And” between values parts separate entries of the source, which are not always exact repeats. Equal values may be shown once.

What was measured:
[1] = Stabilizing effect of accelerated stabilizers (37° C., 14 days) on standard products and quality control products then accelerated at 30° C. for 2 days; assay type: physicochemical; conditions: for Relative deviation %: 2 days at 30° C. vs Control; for concentration in standard products and quality control products, 2 days at 30° C. / concentration in standard products and quality control products, Control: single replicates
Experimental: Standard products of epinephrine, norepinephrine, dopamine, metanephrine, normetanephrine and 3-methoxytyramine were prepared into mixed solutions, and blank plasma containing a stabilizer was used as a matrix to prepare standard products and quality control products.
(§1) In the present example, the stabilizing effect of the stabilizers on plasma samples, standard products and quality control products after acceleration was further verified. The stabilizers were accelerated at 37° C. for 14 days (equivalent to 1 year at 2-8° C.), added into the plasma samples in proportions and then accelerated at 30° C. for 1.5 days (equivalent to 12 months at −30° C. to −15° C.). The stabilizers were accelerated at 37° C. for 14 days (equivalent to 1 year at 2-8° C.), added into the standard products and the quality control products in proportions and then accelerated at 30° C. for 2 days (equivalent to 18 months at −30° C. to −15° C.).

[2] = Stabilizing effect of accelerated stabilizers (37° C., 14 days) on plasma samples then accelerated at 30° C. for 1.5 days; assay type: physicochemical, human; conditions: for Relative deviation %: Accelerate vs Control; for concentration in plasma samples, Control / concentration in plasma samples, Accelerate: single replicates; for concentration in plasma samples, Accelerate: stabilizer accelerated 37° C. 14 days, plasma then accelerated at 30° C. for 1.5 days
Experimental: as §1

[3] = Acceleration test of plasma samples with stabilizers (30° C. for 1.5 days, against control plasma stored at −95° C. to −65° C.), LC-MS/MS Area/IS Area
Experimental: Samples were collected in EDTA-anticoagulant blood collection tubes and then rapidly subjected to […] centrifugation at 2-8° C. to separate plasma. 0.95 mL of the plasma was transferred into centrifuge tubes. After 50 μL of the stabilizer was added for uniform mixing, the plasma samples were stored by refrigeration or freezing.
• (1) 500 μL of plasma/urine samples to be tested were taken, and 50 μL of the internal standard solution and 500 μL of the buffer solution were sequentially added for vertex mixing to obtain diluted samples. • (2) The magnetic medium composite material suspension was subjected to full vortex treatment to reach a suspension state, and then subsequent operation was performed. • (3) Different reagents were added into wells of a preprocessing plate according to the follow operation: adding 200 μL of the magnetic medium composite material suspension in column 1, adding 500 μL of the balance solution in column 2, adding 850 μL of the diluted samples in column 3, adding 500 μL of the balance solution in column 4, adding 200 μL of a rinsing solution in column 5, and adding 100 μL of the elution solution in column 6. • (4) An extraction operation procedure was carried out, as shown in Table 5.
Each group of the plasma samples were stored at 30° C. for 1.5 days, and plasma without addition of any compounds stored at −95° C. to −65° C. was used as a control. […] The stabilizing effect of the single-component stabilizers on the plasma samples was investigated.
The stabilizers were mixed with plasma (the volume ratio of the stabilizers to plasma samples was 1:19), and high concentration plasma samples and low concentration plasma samples were prepared by the method provided in Example 1.
With plasma stored at −95° C. to −65° C. as a control, the above plasma samples were separately stored at 30° C. for 1.5 days to investigate the stability. […]

[4] = Stability of ascorbic acid and glutathione in stabilizers accelerated at 37° C. for 14 days against an unaccelerated stabilizer; assay type: physicochemical; conditions: for stability of ascorbic acid and glutathione in stabilizers after acceleration: 37° C. for 14 days (equivalent to 1 year at 2-8° C.); for Relative deviation %: after acceleration at 37° C. for 14 days vs new formulations
Experimental: Stabilizers (Example 1) were accelerated at 37° C. for 14 days (equivalent to 1 year at 2-8° C.) and then compared with an unaccelerated stabilizer.

[5] = samples at a high concentration level
[6] = samples at a low concentration level
[7] = plasma at a high concentration level, plasma containing 50 μg/mL of the component, control plasma 0.624
[8] = plasma at a high concentration level, plasma containing 50 μg/mL of the component, control plasma 1.522
[9] = plasma at a high concentration level, plasma containing 50 μg/mL of the component, control plasma 2.27
[10] = plasma at a high concentration level, plasma containing 200 μg/mL of the component, control plasma 0.624
[11] = plasma at a high concentration level, plasma containing 200 μg/mL of the component, control plasma 1.522
[12] = plasma at a high concentration level, plasma containing 200 μg/mL of the component, control plasma 2.27
[13] = plasma at a low concentration level, plasma containing 50 μg/mL of the component, control plasma 0.079
[14] = plasma at a low concentration level, plasma containing 50 μg/mL of the component, control plasma 0.219
[15] = plasma at a low concentration level, plasma containing 50 μg/mL of the component, control plasma 0.233
[16] = plasma at a low concentration level, plasma containing 200 μg/mL of the component, control plasma 0.079
[17] = plasma at a low concentration level, plasma containing 200 μg/mL of the component, control plasma 0.219
[18] = plasma at a low concentration level, plasma containing 200 μg/mL of the component, control plasma 0.233
[19] = After acceleration (stabilizer of Example 1, 37° C. for 14 days)
[20] = New formulations (unaccelerated stabilizer of Example 1)

Row | SMILES | Relative deviation % ([1]; High concentration level) | average concentration, 2 days at 30° C. ([1]; High concentration level) | concentration in standard products and quality control products, 2 days at 30° C. ([1]; High concentration level) | average concentration, Control ([1]; High concentration level) | concentration in standard products and quality control products, Control ([1]; High concentration level) | Relative deviation % ([1]; Low concentration level) | average concentration, 2 days at 30° C. ([1]; Low concentration level) | concentration in standard products and quality control products, 2 days at 30° C. ([1]; Low concentration level) | average concentration, Control ([1]; Low concentration level) | concentration in standard products and quality control products, Control ([1]; Low concentration level) | Relative deviation % ([1]; Medium concentration level) | average concentration, 2 days at 30° C. ([1]; Medium concentration level) | concentration in standard products and quality control products, 2 days at 30° C. ([1]; Medium concentration level) | average concentration, Control ([1]; Medium concentration level) | concentration in standard products and quality control products, Control ([1]; Medium concentration level) | Relative deviation % [2, 5] | concentration in plasma samples, Control [2, 5] | concentration in plasma samples, Accelerate [2, 5] | Relative deviation % [2, 6] | concentration in plasma samples, Control [2, 6] | further results
1 | CNCC(O)c1ccc(O)c(OC)c1 (centres unmarked) [MN] | 0.61% | 984.35 pg/mL | 1.00342 ng/mL and 0.93428 ng/mL and 1.01536 ng/mL | 978.42 pg/mL | 1.00662 ng/mL and 0.97242 ng/mL and 0.9562 ng/mL | 2.69% | 12.16 pg/mL | 0.01233 ng/mL and 0.01302 ng/mL and 0.01113 ng/mL | 11.84 pg/mL | 0.01265 ng/mL and 0.01291 ng/mL and 0.00997 ng/mL | −1.18% | 198.93 pg/mL | 0.20299 ng/mL and 0.20812 ng/mL and 0.18568 ng/mL | 201.31 pg/mL | 0.21281 ng/mL and 0.1969 ng/mL and 0.19422 ng/mL | −1.2% | 0.41672 ng/mL and 0.40668 ng/mL and 0.40997 ng/mL | 0.39738 ng/mL and 0.41965 ng/mL and 0.40205 ng/mL | 1.9% | 0.07592 ng/mL and 0.07977 ng/mL and 0.07321 ng/mL | concentration in plasma samples, Accelerate [2, 6]: 0.0778 ng/mL and 0.07674 ng/mL and 0.07872 ng/mL
2 | NC[C@H](O)c1ccc(O)c(O)c1 [NE] | 0.32% | 4998.13 pg/mL | 4.88469 ng/mL and 4.96531 ng/mL and 5.14439 ng/mL | 4982.23 pg/mL | 4.87738 ng/mL and 5.14511 ng/mL and 4.9242 ng/mL | −8.19% | 55.15 pg/mL | 0.05733 ng/mL and 0.05299 ng/mL and 0.05514 ng/mL | 60.07 pg/mL | 0.06429 ng/mL and 0.06019 ng/mL and 0.05575 ng/mL | 1.77% | 994.89 pg/mL | 0.98928 ng/mL and 1.01881 ng/mL and 0.97658 ng/mL | 977.62 pg/mL | 0.97173 ng/mL and 0.97142 ng/mL and 0.98969 ng/mL | −7.1% | 1.73055 ng/mL and 1.84024 ng/mL and 1.88485 ng/mL | 1.79476 ng/mL and 1.56875 ng/mL and 1.70297 ng/mL | −2.5% | 0.27092 ng/mL and 0.2617 ng/mL and 0.26601 ng/mL | concentration in plasma samples, Accelerate [2, 6]: 0.26432 ng/mL and 0.25764 ng/mL and 0.25636 ng/mL
3 | COc1cc(C(O)CN)ccc1O (centres unmarked) [NMN] | −3.68% | 1910.2 pg/mL | 1.89388 ng/mL and 1.85479 ng/mL and 1.98193 ng/mL | 1983.21 pg/mL | 2.00785 ng/mL and 1.95209 ng/mL and 1.98969 ng/mL | 1.41% | 24.2 pg/mL | 0.02503 ng/mL and 0.02506 ng/mL and 0.0225 ng/mL | 23.86 pg/mL | 0.02255 ng/mL and 0.02588 ng/mL and 0.02315 ng/mL | 1.5% | 405.18 pg/mL | 0.39387 ng/mL and 0.42435 ng/mL and 0.39731 ng/mL | 399.18 pg/mL | 0.39333 ng/mL and 0.41828 ng/mL and 0.38593 ng/mL | 2.1% | 0.97087 ng/mL and 0.85456 ng/mL and 0.85498 ng/mL | 0.91096 ng/mL and 0.88464 ng/mL and 0.94153 ng/mL | 1.7% | 0.17577 ng/mL and 0.16472 ng/mL and 0.17242 ng/mL | concentration in plasma samples, Accelerate [2, 6]: 0.17659 ng/mL and 0.17047 ng/mL and 0.17436 ng/mL
4 | O=C1O[C@H]([C@@H](O)CO)C(O)=C1O [ascorbic acid] |  |  |  |  |  |  |  |  |  |  |  |  |  |  |  |  |  |  |  |  | Ratio (Area/IS Area) E [3, 7]: 0; Ratio (Area/IS Area) NE [3, 8]: 0; Ratio (Area/IS Area) DA [3, 9]: 0; Ratio (Area/IS Area) E [3, 10]: 0.048; Ratio (Area/IS Area) NE [3, 11]: 0; Ratio (Area/IS Area) DA [3, 12]: 0; Ratio (Area/IS Area) E [3, 13]: 0; Ratio (Area/IS Area) NE [3, 14]: 0; Ratio (Area/IS Area) DA [3, 15]: 0; Ratio (Area/IS Area) E [3, 16]: 0; Ratio (Area/IS Area) NE [3, 17]: 0; Ratio (Area/IS Area) DA [3, 18]: 0; stability of ascorbic acid and glutathione in stabilizers after acceleration [4]: maintained stable; Area [4, 19]: 6.96E+05 and 6.32E+05 and 6.08E+05; Area [4, 20]: 6.88E+05 and 7.26E+05 and 6.96E+05; Relative deviation % [4]: −8.2%
5 | N[C@@H](CCC(=O)N[C@@H](CS)C(=O)NCC(=O)O)C(=O)O [glutathione] |  |  |  |  |  |  |  |  |  |  |  |  |  |  |  |  |  |  |  |  | Ratio (Area/IS Area) E [3, 7]: 0; Ratio (Area/IS Area) NE [3, 8]: 0; Ratio (Area/IS Area) DA [3, 9]: 0; Ratio (Area/IS Area) E [3, 10]: 0; Ratio (Area/IS Area) NE [3, 11]: 0; Ratio (Area/IS Area) DA [3, 12]: 0; Ratio (Area/IS Area) E [3, 13]: 0; Ratio (Area/IS Area) NE [3, 14]: 0; Ratio (Area/IS Area) DA [3, 15]: 0; Ratio (Area/IS Area) E [3, 16]: 0; Ratio (Area/IS Area) NE [3, 17]: 0; Ratio (Area/IS Area) DA [3, 18]: 0; stability of ascorbic acid and glutathione in stabilizers after acceleration [4]: maintained stable; Area [4, 19]: 7.45E+04 and 7.62E+04 and 8.98E+04; Area [4, 20]: 8.44E+04; Relative deviation % [4]: −5.0%
